Test results published in ChEMBL document CHEMBL1158659, “The alkaloids of Delphinium cashmirianum” (J Nat Prod, 1979).
Activity calls are given as the source filed them. No cut-off for these calls is given here.

Tests used:
Cavia porcellus [1] = organism: Cavia porcellus; assay: Cardiovascular activity in albino guinea pig atria assessed as increase in heart rate by physiograph 4; assay type: functional, tissue-based; conditions: Cardiac atrium
[2] = Arrhythmogenic activity in albino guinea pig atria at 30 uM; assay type: tissue-based, Cavia porcellus, Cardiac atrium
Oryctolagus cuniculus [3] = assay: Cardiotoxicity in iv dosed Albino rabbit assessed as drug level to produce arrhythmias tested at basal heart rate of 190 beats/min; assay type: toxicity, organism-based; conditions: in vivo
Oryctolagus cuniculus [4] = assay: Cardiotoxicity in iv dosed Albino rabbit assessed as time to produce arrhythmias tested at basal heart rate of 190 beats/min; assay type: toxicity, organism-based; conditions: in vivo
Oryctolagus cuniculus [5] = assay: Cardiovascular activity in Albino rabbit assessed as sinusoidal heart rate tested at basal heart rate of 150 beats/min at 0.005 mg/kg, iv by physiograph 4; assay type: functional
Oryctolagus cuniculus [6] = assay: Cardiovascular activity in Albino rabbit assessed as sinusoidal heart rate tested at basal heart rate of 150 beats/min at 0.010 mg/kg, iv by physiograph 4; assay type: functional; conditions: dose 0.01 mg/kg
Oryctolagus cuniculus [7] = assay: Cardiotoxicity in iv dosed Albino rabbit assessed as drug level to produce arrhythmias tested at basal heart rate of 150 beats/min upto 30 mins; assay type: toxicity, organism-based; conditions: in vivo, 0.5 h
Oryctolagus cuniculus [8] = assay: Cardiotoxicity in iv dosed Albino rabbit assessed as drug level to produce arrhythmias tested at basal heart rate of 150 beats/min; assay type: toxicity, organism-based; conditions: in vivo
Oryctolagus cuniculus [9] = assay: Cardiotoxicity in iv dosed Albino rabbit assessed as time to produce arrhythmias tested at basal heart rate of 150 beats/min; assay type: toxicity, organism-based; conditions: in vivo
Oryctolagus cuniculus [10] = assay: Cardiovascular activity in Albino rabbit assessed as change in heart rate tested at basal heart rate of 185 beats/min at 0.10 mg/kg, iv by physiograph 4; assay type: functional; conditions: dose 0.1 mg/kg
Oryctolagus cuniculus [11] = assay: Cardiovascular activity in Albino rabbit assessed as change in heart rate tested at basal heart rate of 185 beats/min at 0.50 mg/kg, iv by physiograph 4; assay type: functional; conditions: dose 0.5 mg/kg
Oryctolagus cuniculus [12] = assay: Cardiovascular activity in Albino rabbit assessed as change in heart rate tested at basal heart rate of 200 beats/min at 0.10 mg/kg, iv by physiograph 4; assay type: functional; conditions: dose 0.1 mg/kg
Oryctolagus cuniculus [13] = assay: Cardiovascular activity in Albino rabbit assessed as change in heart rate tested at basal heart rate of 200 beats/min at 0.25 mg/kg, iv by physiograph 4; assay type: functional
Oryctolagus cuniculus [14] = assay: Cardiovascular activity in Albino rabbit assessed as change in heart rate tested at basal heart rate of 200 beats/min at 0.50 mg/kg, iv by physiograph 4; assay type: functional; conditions: dose 0.5 mg/kg
Oryctolagus cuniculus [15] = assay: Cardiovascular activity in Albino rabbit assessed as change in heart rate tested at basal heart rate of 200 beats/min at 1.0 mg/kg, iv by physiograph 4; assay type: functional
[16] = Arrhythmogenic activity in albino guinea pig atria at 100 uM; assay type: tissue-based, Cavia porcellus, Cardiac atrium
[17] = Arrhythmogenic activity in albino guinea pig atria after repeated atrial washing; assay type: tissue-based, Cavia porcellus, Cardiac atrium
Oryctolagus cuniculus [18] = assay: Cardiovascular activity in Albino rabbit assessed as change in heart rate tested at basal heart rate of 190 beats/min at 0.10 mg/kg, iv by physiograph 4; assay type: functional; conditions: dose 0.1 mg/kg
Oryctolagus cuniculus [19] = assay: Cardiovascular activity in Albino rabbit assessed as change in heart rate tested at basal heart rate of 190 beats/min at 0.25 mg/kg, iv by physiograph 4; assay type: functional
Oryctolagus cuniculus [20] = assay: Cardiovascular activity in Albino rabbit assessed as change in heart rate tested at basal heart rate of 190 beats/min at 0.50 mg/kg, iv by physiograph 4; assay type: functional; conditions: dose 0.5 mg/kg
Oryctolagus cuniculus [21] = assay: Cardiovascular activity in Albino rabbit assessed as change in heart rate tested at basal heart rate of 190 beats/min at 1.0 mg/kg, iv by physiograph 4; assay type: functional
[22] = Arrhythmogenic activity in albino guinea pig atria at 10 uM after repeated atrial washing; assay type: tissue-based, Cavia porcellus, Cardiac atrium
Cavia porcellus [23] = organism: Cavia porcellus; assay: Cardiovascular activity in albino guinea pig atria assessed as increase in heart rate at 100 uM by physiograph 4; assay type: functional, tissue-based; conditions: Cardiac atrium
Oryctolagus cuniculus [24] = assay: Cardiovascular activity in Albino rabbit assessed as change in heart rate tested at basal heart rate of 180 beats/min at 0.25 mg/kg, iv by physiograph 4; assay type: functional
Oryctolagus cuniculus [25] = assay: Cardiovascular activity in Albino rabbit assessed as change in heart rate tested at basal heart rate of 180 beats/min at 0.50 mg/kg, iv by physiograph 4; assay type: functional; conditions: dose 0.5 mg/kg
Oryctolagus cuniculus [26] = assay: Cardiovascular activity in Albino rabbit assessed as change in heart rate tested at basal heart rate of 195 beats/min at 0.10 mg/kg, iv by physiograph 4; assay type: functional; conditions: dose 0.1 mg/kg
Oryctolagus cuniculus [27] = assay: Cardiovascular activity in Albino rabbit assessed as change in heart rate tested at basal heart rate of 195 beats/min at 0.25 mg/kg, iv by physiograph 4; assay type: functional
Oryctolagus cuniculus [28] = assay: Cardiovascular activity in Albino rabbit assessed as change in heart rate tested at basal heart rate of 195 beats/min at 0.50 mg/kg, iv by physiograph 4; assay type: functional; conditions: dose 0.5 mg/kg
Oryctolagus cuniculus [29] = assay: Cardiovascular activity in Albino rabbit assessed as change in heart rate tested at basal heart rate of 195 beats/min at 1.0 mg/kg, iv by physiograph 4; assay type: functional
Oryctolagus cuniculus [30] = assay: Cardiovascular activity in Albino rabbit assessed as change in heart rate tested at basal heart rate of 180 beats/min at 0.10 mg/kg, iv by physiograph 4; assay type: functional; conditions: dose 0.1 mg/kg
Oryctolagus cuniculus [31] = assay: Cardiovascular activity in Albino rabbit assessed as change in heart rate tested at basal heart rate of 185 beats/min at 0.25 mg/kg, iv by physiograph 4; assay type: functional
Oryctolagus cuniculus [32] = assay: Cardiovascular activity in Albino rabbit assessed as change in heart rate tested at basal heart rate of 185 beats/min at 1.0 mg/kg, iv by physiograph 4; assay type: functional
Oryctolagus cuniculus [33] = assay: Cardiovascular activity in Albino rabbit assessed as change in heart rate tested at basal heart rate of 185 beats/min at 5.0 mg/kg, iv by physiograph 4; assay type: functional
Oryctolagus cuniculus [34] = assay: Cardiovascular activity in Albino rabbit assessed as sinusoidal heart rate tested at basal heart rate of 200 beats/min at 0.05 mg/kg, iv by physiograph 4; assay type: functional
Oryctolagus cuniculus [35] = assay: Cardiovascular activity in Albino rabbit assessed as sinusoidal heart rate tested at basal heart rate of 185 beats/min at 0.05 mg/kg, iv by physiograph 4; assay type: functional

With CCN1C[C@]2(COC)[C@H](O)C[C@H](OC)[C@@]34[C@@H]5C[C@@]6(O)[C@H](OC(=O)c7ccccc7)[C@@H]5[C@@](OC(C)=O)([C@@H]([C@H](OC)[C@H]23)[C@@H]14)[C@@H](O)[C@@H]6OC [ACONITINE] the Activity (Cavia porcellus [1]) was “Dose-dependent effect”, the Activity [2] was “Toxic” and the Activity (Oryctolagus cuniculus [3]) was 0.1 mg/kg. It also gave an Activity (Oryctolagus cuniculus [4]) of 12 s, an Activity (Oryctolagus cuniculus [5]) of 110 bpm and an Activity (Oryctolagus cuniculus [6]) of 170 bpm. For the same molecule, the Activity (Oryctolagus cuniculus [7]) was 0.005 mg/kg, the Activity (Oryctolagus cuniculus [8]) was 0.01 mg/kg and the Activity (Oryctolagus cuniculus [9]) was 30 s.
In the case of CCN1C[C@]2(CO)CC[C@H](OC)[C@@]34[C@@H]5C[C@H]6[C@H](OC)[C@@H]5[C@](O)(C[C@@H]6OC)[C@](O)([C@@H](OC)[C@H]23)[C@@H]14 [LYCOCTONINE], the Activity (Oryctolagus cuniculus [10]) was -25 bpm, the Activity (Oryctolagus cuniculus [11]) was 0 bpm and the Activity (Oryctolagus cuniculus [12]) was 5 bpm. It also gave an Activity (Oryctolagus cuniculus [13]) of 5 bpm, an Activity (Oryctolagus cuniculus [14]) of 0 bpm and an Activity (Oryctolagus cuniculus [15]) of 0 bpm.
In the case of CCN1C[C@]2(OC(=O)c3ccccc3NC(C)=O)CC[C@H](OC)[C@@]34[C@@H]2C[C@@H]([C@@H]13)[C@@]1(O)C[C@H](OC)[C@H]2C[C@@H]4[C@]1(O)[C@H]2OC, the Activity (Cavia porcellus [1]) was “inactive”, the Activity [16] was “Toxic” and the Activity [17] was “Non-toxic”. The Activity (Oryctolagus cuniculus [18]) was 0 bpm, the Activity (Oryctolagus cuniculus [19]) was -5 bpm and the Activity (Oryctolagus cuniculus [20]) was -30 bpm. For the same molecule, the Activity (Oryctolagus cuniculus [21]) was -35 bpm, the Activity (Oryctolagus cuniculus [3]) was 1 mg/kg and the Activity (Oryctolagus cuniculus [4]) was 45 s. The Activity [22] was “Toxic” and the Activity (Cavia porcellus [23]) was “inactive”.
CCN1C[C@]2(COC(=O)c3ccccc3N3C(=O)CCC3=O)CC[C@H](OC)[C@]34C1[C@](O)([C@@H](OC)[C@H]23)[C@@]1(O)C[C@H](OC)[C@H]2C[C@@H]4[C@@H]1[C@H]2OC [LYCACONITINE] showed an Activity (Oryctolagus cuniculus [24]) of 0 bpm, an Activity (Oryctolagus cuniculus [25]) of -10 bpm and an Activity (Oryctolagus cuniculus [26]) of 3 bpm. It also gave an Activity (Oryctolagus cuniculus [27]) of 5 bpm, an Activity (Oryctolagus cuniculus [28]) of 0 bpm and an Activity (Oryctolagus cuniculus [29]) of -5 bpm. The Activity (Oryctolagus cuniculus [30]) was -10 bpm.
Work on CCN1C[C@]2(C=O)CC[C@H](OC)[C@@]34[C@@H]5C[C@@H]6[C@@H](OC)C[C@@](O)(C5[C@H]6OC)[C@](O)([C@@H](OC)[C@H]23)[C@@H]14 [LYCOCTONAL] yielded an Activity (Oryctolagus cuniculus [10]) of -5 bpm, an Activity (Oryctolagus cuniculus [31]) of 0 bpm and an Activity (Oryctolagus cuniculus [11]) of 0 bpm. For the same molecule, the Activity (Oryctolagus cuniculus [32]) was 0 bpm, the Activity (Oryctolagus cuniculus [33]) was -10 bpm and the Activity (Oryctolagus cuniculus [12]) was 0 bpm. The Activity (Oryctolagus cuniculus [13]) was 0 bpm, the Activity (Oryctolagus cuniculus [14]) was 0 bpm and the Activity (Oryctolagus cuniculus [34]) was -3 bpm. For the same molecule, the Activity (Oryctolagus cuniculus [35]) was 0 bpm.
